According to patent US20240415791A1, “Therapeutic methods and compositions for treating cancer using devimistat and a fatty acid oxidation inhibitor, a tyrosine kinase inhibitor, a glutaminase inhibitor, and/or a glycolysis inhibitor” (Cornerstone Pharmaceuticals, Inc., priority 2021, published 2024):

Tests used:
[1] = test system: BxPC-3 xenografts; assay: Oral devimistat in BxPC3 pancreatic cancer xenografts; assay type: in vivo, mice; conditions: weekly for 4 weeks
Protocol: An acclimation period of 7 days was allowed between the arrival of the animal at the study site before tumor inoculation and experimentation. Mice were inoculated subcutaneously (SC) in the right flank with 2×10^6 human H460 NSCLC or BxPC3 pancreatic cancer cells that were suspended in 0.1 mL of Dulbeco's Phosphate Buffered Salt (PBS) solution using a 1 cc syringe with a 27⅝ gauge needle. Tumor dimensions (length and width) were measured daily before, during and after treatment (using Vernier calipers) and the tumor volume was calculated using the prolate ellipsoid formula: (length×width^2)/2. Treatment with test or control articles began 8 days post tumor cell implantation when the tumor was approximately 300 mm^3.
A similar study was conducted in CD-1 nude mice (n=9) inoculated with 2×10^6 BxPC-3 cells. The study was initiated when tumors reached an average size of 150 mm^3 (day 0) and devimistat was administered at an oral dose of […] for 4 weeks. A comparator arm (n=9) was conducted with IP treatment at a weekly dose of 25 mg/kg.

[2] = Oral bioavailability / plasma pharmacokinetics of devimistat formulations in mice; set-up: species or system BALB/c nude mice; conditions: mouse, in vivo
Protocol: […]; 5 mL/kg; Ex. 7A); (2) 5 μL/g IP injection of the triethanolamine/dextrose aqueous solution of Example 7 (25 mg/kg; 5 mL/kg; 7A); (3) 5 μL/g oral administration of the Eudragit L100 SDD suspension of Example 7 (100 mg/kg; 5 mL/kg; 7B); (4) 5 μL/g oral administration of the HPMCAS-M SDD suspension of Example 7 (100 mg/kg; 5 mL/kg; 7C); (5) 5 μL/g oral administration of the 20 mg/mL devimistat suspension of Example 7 (100 mg/kg; 5 mL/kg; 7D); or (6) 10 μL/g oral administration of the 10 mg/mL SOLUTOL solution of Example 7 (100 mg/kg; 10 mL/kg; 7E). In each experiment, about 80 μL of blood was collected from one subgroup of 4 male and 4 female mice at 0.083, 1, 4, and 24 hours after dosing, and from the other subgroup of 4 male and 4 female mice at 0.5, 2, and 8 hours. Plasma from the collected blood samples was analyzed by LC-MS/MS for the presence of devimistat.

[3] = cited from earlier work
[4] = test system: AsPC1 cells; assay: Devimistat-induced cell death (ATP after recovery) in AsPC1 cells; assay type: cell-based, human; conditions: exogenous nutrient-free conditions
Protocol: Cells were plated at 80% confluency in complete RPMI in black, clear bottom 96-well plates or 35-mm dishes for ATP, protein and glycogen analysis, or glass coverslips for fluorescence visualization. […] Prior to drug treatment, cells were incubated in a nutrient-free carbonate buffered salt solution (CBS2) for 3 hours. Drug treatments were then carried out in CBS2 with addition of nutrient sources and/or chemical agents as described in the Examples and Figures.
LOGIC: High throughput, plate reader assays for cell death essentially always ultimately depend on metabolic activity of cells to identify viability, directly or indirectly. Thus, strong inhibition of metabolic activity by anti-metabolism agents like those described herein can confound cell death analysis by such assays. […] The inventors thus used a recovery-based assay wherein cells are treated with anti-metabolic agents under conditions where mitochondrial metabolism is (or becomes) limiting on viability. After experimental treatment, drug and media are removed and cells are allowed to recover in serum-free RPMI. RPMI provides high levels of glucose in support of glycolytic ATP generation (independently of mitochondrial function), allowing viable cells to recover ATP levels that are ultimately measured in the plate assay to score cell viability.
Survival is assessed by conventional luminescence measurement of ATP levels after this recovery.
TECHNICAL DETAILS: Immediately after drug treatments, acute ATP levels of cells in black, clear bottom 96-well plates were measured using the CellTiter-Glo® Luminescent Cell Viability Assay (catalog #G775B) following Promega (Madison, WI) protocols. […] After this recovery period ATP levels were measured using the CellTiter-Glo® Luminescent Cell Viability Assay as described above.
Survival is assessed by conventional luminescence measurement of ATP levels after this recovery. See the Methods section above for a detailed description of this assay and its validation.

[5] = test system: BxPC3, PANC1, AsPC1 and H460 cells; assay: 3H-2-deoxyglucose uptake by tumor cell lines; assay type: cell-based, human; conditions: 240 μM devimistat, complete RPMI, two hours
Protocol: Cells were treated in complete RPMI with devimistat (240 μM) for a total of 2 hours, with a pulse of 1,2-^3H 2-deoxyglucose at the end of this treatment for the times indicated in Example 1D and FIG. 1D. Cells were harvested, washed, and counted to asses uptake. More particularly, seeding, drug treatment, and 2DG uptake were all performed in RPMI medium supplemented with 10% FBS for BXPC3, H460 and PANC1 cells and DMEM+10% FBS for AsPC1. All treatments were done in triplicate. BxPC3 cells were seeded at 500,000 cells per 35-mm dish; H460, PANC1, and AsPC1 cells were plated in 6 well plates at 300,000 cells per well for PANC1 and at 500,000 cells per well for AsPC1 and H460. […]
At the end of the 2 hour drug treatment, plates were placed on ice, medium removed and plates were washed three times with ice cold medium without FBS. […] Lysates were transferred into scintillation vials containing 3 mL of scintillation cocktail and counted.
D. Pulse analysis of ^3H-2-deoxyglucose (2DG) uptake by tumor cell lines. ˜8×10^5 cells were treated with 240 μM devimistat or solvent control in complete RPMI for two hours and pulse labeled by addition of 0.5 μCi of ^3H-2DG for the final 0.25 or 1 hour of treatment as indicated in FIG. 1D. Cells were washed in ice-cold RPMI without serum, lysed, and counted (see Methods, above).

## O=C(O)CCCCC(CCSCc1ccccc1)SCc1ccccc1 (stereo not drawn) [devimistat, 6,8-bis(benzylsulfanyl)octanoic acid]
[1]
  tumor growth in BxPC3 xenografts: especially pronounced
[2]
  oral bioavailability (in words): orally bioavailable
[3]; IV dosing
  half-life after IV dosing: 1 to 2 h
[3]; clinical IV infusion
  peak serum concentration after clinical infusion: ~100 µM
[4]
  sensitivity of AsPC1 line to devimistat monotherapy: resistant to devimistat monotherapy
[5]
  3H-2-deoxyglucose (glucose) uptake: accelerated glucose uptake
